Data reported in patent US9249118B2, “Purifying crude furan 2,5-dicarboxylic acid by hydrogenation” (Eastman Chemical Company, priority 2012, dated 2016).

Assay: solubility of FDCA in water at different temperatures (FIG. 1)
Format: physicochemical
Details: ambient pressure, as the water temperature increases beyond 130° C. (FIG. 1)
Procedure: FIG. 1 depicts the solubility of FDCA in water at different temperatures.
Suitable dissolution temperatures are those effective to dissolve the desired amount of FDCA solids into solution. The hydrogenation solvent composition may be added at (by pre-heating) or heated in the dissolution zone to a temperature of at least 120° C. under a pressure and time sufficient to allow for at least 80 wt. % dissolution, although to reduce the time required for dissolution, it is desirable that the hydrogenation solvent composition temperature is at least 130° C., or at least 135° C., or at least 140° C., or at least 150° C.

solubility of FDCA in water: increases dramatically
SMILES: O=C(O)c1ccc(C(=O)O)o1 [FDCA, Furan 2,5-dicarboxylic acid]
